Reference: BigSolDB 2.1

c1ccc2c(c1)CCc1ccccc1N2
solubility (mole fraction)
Conditions | 283.15 K | 288.15 K | 293.15 K | 298.15 K | 303.15 K | 308.15 K | 313.15 K | 318.15 K | 323.15 K | 328.15 K
in DMSO | – | – | 0.0199 | 0.0239 | 0.0285 | 0.0336 | 0.0391 | 0.045 | 0.0516 | 0.0592
in ethanol | 0.000769 | 0.00102 | 0.00136 | 0.00175 | 0.00227 | 0.00284 | 0.0036 | 0.00453 | 0.00558 | 0.00691
in ethylene glycol | 0.000351 | 0.000427 | 0.000494 | 0.000566 | 0.000642 | 0.000722 | 0.000812 | 0.000905 | 0.00101 | 0.00111
in isopropanol | 0.000448 | 0.000585 | 0.000783 | 0.000992 | 0.00127 | 0.00161 | 0.00204 | 0.00253 | 0.00314 | 0.00388
in water | 8.4e-07 | 1.27e-06 | 1.83e-06 | 2.73e-06 | 3.77e-06 | 5.41e-06 | 7.42e-06 | 1.02e-05 | 1.39e-05 | 1.87e-05
